Experimental data published in US20250288589A1, “PYRIDOPYRIMIDINES AND METHODS OF THEIR USE” (Kineta, Inc., priority 2021, published 2025).

What follows are molecules tested against T1, full-length human PIKFYVE (Homo sapiens, UniProt Q9Y2I7, L932S/Q1183K/Q995L/S1033A/S696N/T998S) (assay: PIKfyve biochemical assay (ADP-Glo Kinase assay, Carna Biosciences)). Settings: GST-PIKFYVE, 10 μM to 3 nM in duplicate, read-out: hPIKfyve IC50.
T1 construct: A full-length human PIKFYVE [1-2098(end) amino acids and S696N, L932S, Q995L, T998S, S1033A and Q1183K; purchased Carna Biosciences; host or cells: baculovirus expression system
T1 sequence (Q9Y2I7 whole entry S696N/L932S/Q995L/T998S/S1033A/Q1183K): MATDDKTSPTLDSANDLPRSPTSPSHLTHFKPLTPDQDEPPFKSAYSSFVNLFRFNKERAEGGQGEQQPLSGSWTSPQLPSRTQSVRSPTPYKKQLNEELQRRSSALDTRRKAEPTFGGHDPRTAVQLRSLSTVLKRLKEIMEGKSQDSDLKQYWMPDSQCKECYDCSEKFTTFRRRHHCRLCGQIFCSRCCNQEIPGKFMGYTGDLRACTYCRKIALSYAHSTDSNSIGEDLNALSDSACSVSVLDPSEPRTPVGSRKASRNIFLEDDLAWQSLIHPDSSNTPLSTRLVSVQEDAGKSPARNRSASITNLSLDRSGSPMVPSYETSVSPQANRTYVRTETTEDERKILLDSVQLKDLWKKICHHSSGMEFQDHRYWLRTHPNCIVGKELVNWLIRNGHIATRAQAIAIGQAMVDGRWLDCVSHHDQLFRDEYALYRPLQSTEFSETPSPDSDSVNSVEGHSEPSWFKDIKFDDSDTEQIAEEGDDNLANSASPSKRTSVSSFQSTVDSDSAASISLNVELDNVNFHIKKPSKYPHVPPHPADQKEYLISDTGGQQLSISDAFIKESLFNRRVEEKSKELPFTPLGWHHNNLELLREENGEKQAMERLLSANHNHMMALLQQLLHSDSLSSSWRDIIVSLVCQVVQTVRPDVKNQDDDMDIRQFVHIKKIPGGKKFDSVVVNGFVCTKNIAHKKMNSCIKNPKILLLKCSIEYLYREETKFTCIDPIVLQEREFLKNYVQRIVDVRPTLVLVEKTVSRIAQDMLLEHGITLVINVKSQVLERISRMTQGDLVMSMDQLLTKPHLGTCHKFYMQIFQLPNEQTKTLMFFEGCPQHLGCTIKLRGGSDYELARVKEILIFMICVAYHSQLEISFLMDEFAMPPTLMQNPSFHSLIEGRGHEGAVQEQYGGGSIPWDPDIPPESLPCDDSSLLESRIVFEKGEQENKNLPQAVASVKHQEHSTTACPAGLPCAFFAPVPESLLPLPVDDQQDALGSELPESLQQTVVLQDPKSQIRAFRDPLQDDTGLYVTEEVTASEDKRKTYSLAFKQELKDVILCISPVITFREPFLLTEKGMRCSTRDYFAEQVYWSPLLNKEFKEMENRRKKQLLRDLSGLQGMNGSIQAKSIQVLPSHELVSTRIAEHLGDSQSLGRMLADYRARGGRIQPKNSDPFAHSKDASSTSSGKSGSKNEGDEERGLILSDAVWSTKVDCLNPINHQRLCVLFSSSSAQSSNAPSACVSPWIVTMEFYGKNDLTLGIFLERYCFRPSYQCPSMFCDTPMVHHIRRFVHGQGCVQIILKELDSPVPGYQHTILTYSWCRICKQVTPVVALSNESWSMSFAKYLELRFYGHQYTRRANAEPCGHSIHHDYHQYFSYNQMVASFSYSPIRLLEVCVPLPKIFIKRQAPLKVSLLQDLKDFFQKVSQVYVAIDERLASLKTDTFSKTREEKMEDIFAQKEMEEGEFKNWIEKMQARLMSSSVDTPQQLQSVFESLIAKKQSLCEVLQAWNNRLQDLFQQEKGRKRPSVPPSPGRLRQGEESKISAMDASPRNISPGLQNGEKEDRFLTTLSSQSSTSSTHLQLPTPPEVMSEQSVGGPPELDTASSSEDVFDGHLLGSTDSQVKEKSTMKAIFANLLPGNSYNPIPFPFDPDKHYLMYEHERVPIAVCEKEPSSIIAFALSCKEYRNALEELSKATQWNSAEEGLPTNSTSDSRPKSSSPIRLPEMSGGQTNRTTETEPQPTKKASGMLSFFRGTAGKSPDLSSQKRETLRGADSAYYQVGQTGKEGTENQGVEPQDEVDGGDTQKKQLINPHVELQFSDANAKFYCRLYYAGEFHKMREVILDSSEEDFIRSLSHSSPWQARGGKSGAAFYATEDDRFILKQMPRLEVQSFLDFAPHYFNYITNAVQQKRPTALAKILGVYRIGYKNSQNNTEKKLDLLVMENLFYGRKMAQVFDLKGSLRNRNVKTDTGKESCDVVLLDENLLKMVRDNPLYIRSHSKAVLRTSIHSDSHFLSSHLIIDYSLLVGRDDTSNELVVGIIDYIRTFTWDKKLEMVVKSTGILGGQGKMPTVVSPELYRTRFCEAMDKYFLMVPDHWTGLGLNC
Source text: (§1) PIKfyve Biochemical Assay. The biochemical PIKFyve inhibition assays were run by Carna Biosciences according to proprietary methodology based on the Promega ADP-Glo™ Kinase assay. A full-length human PIKFYVE [1-2098(end) amino acids and S696N, L932S, Q995L, T998S, S1033A and Q1183K of the protein having the sequence set forth in NCBI Reference Sequence No. NP_055855.2] was expressed as N-terminal GST-fusion protein (265 kDa) using baculovirus expression system. GST-PIKFYVE was purified by using glutathione sepharose chromatography and used in an ADP-Glo™ Kinase assay (Promega). Reactions were set up by adding the test compound solution, substrate solution, ATP solution and kinase solution, each at 4× final concentrations. Reactions were prepared with assay buffer (50 mM MOPS, 1 mM DTT, pH7.2), mixed, and incubated in black 384 well polystyrene plates for 1 hour at room temperature. ADP-Glo™ reagent was then added for 40 minutes, followed by kinase detection reagent for an additional 40 minutes. The kinase activity was evaluated by detecting relative light units on a luminescence plate reader. Samples were run in duplicate from 10 μM to 3 nM. […] IC50 values were calculated from concentration vs % inhibition curves by fitting to a four-parameter logistic curve.
as §1, with “The” for “PIKfyve Biochemical Assay. The”, “accession number” for “the protein having the sequence set forth in NCBI Reference Sequence No.”, “uM” for “μM”

IC50, 10 to 100 nM:
c1ccc(-c2ccn(-c3nc(N4CCOCC4)c4nc(C5CCOCC5)ccc4n3)n2)cc1 [Compound 9, 4-[2-(3-phenylpyrazol-1-yl)-6-tetrahydropyran-4-yl-pyrido[3,2-d]pyrimidin-4-yl]morpholine]
Fc1ccc(-c2ccn(-c3nc(N4CCOCC4)c4ncc(C5CCOCC5)cc4n3)n2)cc1 [Compound 20, 4-[2-[3-(4-fluorophenyl)pyrazol-1-yl]-7-tetrahydropyran-4-yl-pyrido[3,2-d]pyrimidin-4-yl]morpholine]
Fc1cccc(-c2ccn(-c3nc(N4CCOCC4)c4ncc(C5CCOCC5)cc4n3)n2)c1 [Compound 22, 4-[2-[3-(3-fluorophenyl)pyrazol-1-yl]-7-tetrahydropyran-4-yl-pyrido[3,2-d]pyrimidin-4-yl]morpholine]
COc1cccc(-c2ccn(-c3nc(N4CCOCC4)c4ncccc4n3)n2)c1 [Compound 27, 4-(2-(3-(3-methoxyphenyl)-1H-pyrazol-1-yl)pyrido[3,2-d]pyrimidin-4-yl)morpholine]
Cc1cnc2c(N3CCOCC3)nc(-n3ccc(-c4ccccc4)n3)nc2c1 [Compound 34, 4-(7-methyl-2-(3-phenyl-1H-pyrazol-1-yl)pyrido[3,2-d]pyrimidin-4-yl)morpholine]
c1ccc(-c2ccn(-c3nc(N4CCOCC4)c4ncc(C5CCNCC5)cc4n3)n2)cc1 [Compound 36, 4-(2-(3-phenyl-1H-pyrazol-1-yl)-7-(piperidin-4-yl)pyrido[3,2-d]pyrimidin-4-yl)morpholine]
CN1CCC(c2cnc3c(N4CCOCC4)nc(-n4ccc(-c5ccccc5)n4)nc3c2)CC1 [Compound 37, 4-(7-(1-methylpiperidin-4-yl)-2-(3-phenyl-1H-pyrazol-1-yl)pyrido[3,2-d]pyrimidin-4-yl)morpholine]
c1ccc(-c2ccn(-c3nc(N4CCOCC4)c4ncc(N5CCOCC5)cc4n3)n2)cc1 [Compound 41, 4-[4-morpholino-2-(3-phenylpyrazol-1-yl)pyrido[3,2-d]pyrimidin-7-yl]morpholine]
c1ccc(-c2ccn(-c3nc(N4CCOCC4)c4ncc(N5CCNCC5)cc4n3)n2)cc1 [Compound 42, 4-[2-(3-phenylpyrazol-1-yl)-7-piperazin-1-yl-pyrido[3,2-d]pyrimidin-4-yl]morpholine]
COc1cccc(-c2cnn(-c3nc(N4CCOCC4)c4ncc(C(=O)O)cc4n3)c2)c1 [Compound 44, 2-(4-(3-methoxyphenyl)-1H-pyrazol-1-yl)-4-morpholinopyrido[3,2-d]pyrimidine-7-carboxylic acid]
c1ccc(-c2ccn(-c3nc(N4CCOCC4)c4ncc(-c5ccncc5)cc4n3)n2)cc1 [Compound 48, 4-(2-(3-phenyl-1H-pyrazol-1-yl)-7-(pyridin-4-yl)pyrido[3,2-d]pyrimidin-4-yl)morpholine]

IC50, < 10 nM:
c1ccc(-c2cnn(-c3nc(N4CCOCC4)c4ncc(C5CCOCC5)cc4n3)c2)cc1 [Compound 10, 4-[2-(4-phenylpyrazol-1-yl)-7-tetrahydropyran-4-yl-pyrido[3,2-d]pyrimidin-4-yl]morpholine]
COc1cccc(-c2ccn(-c3nc(N4CCOCC4)c4ncc(C5=CCOCC5)cc4n3)n2)c1 [Compound 16, 4-(7-(3,6-dihydro-2H-pyran-4-yl)-2-(3-(3-methoxyphenyl)-1H-pyrazol-1-yl)pyrido[3,2-d]pyrimidin-4-yl)morpholine]
COc1cccc(-c2cnn(-c3nc(N4CCOCC4)c4ncccc4n3)c2)c1 [Compound 28, 4-(2-(4-(3-methoxyphenyl)-1H-pyrazol-1-yl)pyrido[3,2-d]pyrimidin-4-yl)morpholine]
c1ccc(-c2cnn(-c3nc(N4CCOCC4)c4ncc(N5CCOCC5)cc4n3)c2)cc1 [Compound 40, 4,4′-(2-(4-phenyl-1H-pyrazol-1-yl)pyrido[3,2-d]pyrimidine-4,7-diyl)dimorpholine]
COC(=O)c1cnc2c(N3CCOCC3)nc(-n3cc(-c4cccc(OC)c4)cn3)nc2c1 [Compound 43, methyl 2-(4-(3-methoxyphenyl)-1H-pyrazol-1-yl)-4-morpholinopyrido[3,2-d]pyrimidine-7-carboxylate]
COc1cccc(-c2cnn(-c3nc(N4CCOCC4)c4ncc(CO)cc4n3)c2)c1 [Compound 45, (2-(4-(3-methoxyphenyl)-1H-pyrazol-1-yl)-4-morpholinopyrido[3,2-d]pyrimidin-7-yl)methanol]
Oc1cccc(-c2cnn(-c3nc(N4CCOCC4)c4ncccc4n3)c2)c1 [Compound 46, 3-(1-(4-morpholinopyrido[3,2-d]pyrimidin-2-yl)-1H-pyrazol-4-yl)phenol]

IC50, > 10000 nM:
CC(C)(C)OC(=O)N1CCC=C(c2ccn(-c3nc(N4CCOCC4)c4ncccc4n3)n2)C1 [Compound 5, tert-butyl 3-(1-(4-morpholinopyrido[3,2-d]pyrimidin-2-yl)-1H-pyrazol-3-yl)-5,6-dihydropyridine-1(2H)-carboxylate]
CC(C)c1ccn(-c2nc(N3CCOCC3)c3ncccc3n2)n1 [Compound 18, 4-(2-(3-isopropyl-1H-pyrazol-1-yl)pyrido[3,2-d]pyrimidin-4-yl)morpholine]
Cc1cc(-c2ccccc2)nn1-c1nc(N2CCOCC2)c2ncccc2n1 [Compound 39, 4-(2-(5-methyl-3-phenyl-1H-pyrazol-1-yl)pyrido[3,2-d]pyrimidin-4-yl)morpholine]
c1cc(Oc2nc(N3CCOCC3)c3ncccc3n2)cc(-c2cn[nH]c2)c1 [Compound 47, 4-(2-(3-(1H-pyrazol-4-yl)phenoxy)pyrido[3,2-d]pyrimidin-4-yl)morpholine]

IC50, 1000 to 10000 nM:
c1cncc(-c2ccn(-c3nc(N4CCOCC4)c4ncccc4n3)n2)c1 [Compound 13, 4-(2-(3-(pyridin-3-yl)-1H-pyrazol-1-yl)pyrido[3,2-d]pyrimidin-4-yl)morpholine]
c1cnc2c(N3CCOCC3)nc(-n3ccc(-c4ccncc4)n3)nc2c1 [Compound 14, 4-(2-(3-(pyridin-4-yl)-1H-pyrazol-1-yl)pyrido[3,2-d]pyrimidin-4-yl)morpholine]

IC50, 100 to 1000 nM:
COc1ccc(-c2ccn(-c3nc(N4CCOCC4)c4ncccc4n3)n2)cc1 [Compound 17, 4-(2-(3-(4-methoxyphenyl)-1H-pyrazol-1-yl)pyrido[3,2-d]pyrimidin-4-yl)morpholine]
Fc1ccccc1-c1ccn(-c2nc(N3CCOCC3)c3ncc(C4CCOCC4)cc3n2)n1 [Compound 19, 4-[2-[3-(2-fluorophenyl)pyrazol-1-yl]-7-tetrahydropyran-4-yl-pyrido[3,2-d]pyrimidin-4-yl]morpholine]
c1ccc(-c2ccn(-c3nc(N4CCOCC4)c4ncc(C5CCOCC5)cc4n3)n2)nc1 [Compound 21, 4-[2-[3-(2-pyridyl)pyrazol-1-yl]-7-tetrahydropyran-4-yl-pyrido[3,2-d]pyrimidin-4-yl]morpholine]
COc1ccc(-c2ccn(-c3nc(N4CCOCC4)c4ncc(C5=CCOCC5)cc4n3)n2)cc1 [Compound 29, 4-(7-(3,6-dihydro-2H-pyran-4-yl)-2-(3-(4-methoxyphenyl)-1H-pyrazol-1-yl)pyrido[3,2-d]pyrimidin-4-yl)morpholine]
COc1ccc(-c2ccn(-c3nc(N4CCOCC4)c4ncc(C5CCOCC5)cc4n3)n2)cc1 [Compound 30, 4-(2-(3-(4-methoxyphenyl)-1H-pyrazol-1-yl)-7-(tetrahydro-2H-pyran-4-yl)pyrido[3,2-d]pyrimidin-4-yl)morpholine]
CC1COCCN1c1nc(-n2ccc(-c3ccccc3)n2)nc2cccnc12 (centres unmarked) [Compound 31, 3-methyl-4-(2-(3-phenyl-1H-pyrazol-1-yl)pyrido[3,2-d]pyrimidin-4-yl)morpholine]
Brc1cnc2c(N3CCOCC3)nc(-n3ccc(-c4ccccc4)n3)nc2c1 [Compound 33, 4-(7-bromo-2-(3-phenyl-1H-pyrazol-1-yl)pyrido[3,2-d]pyrimidin-4-yl)morpholine]
COc1ccc(Cc2ccn(-c3nc(N4CCOCC4)c4ncc(C5=CCOCC5)cc4n3)n2)cc1 [Compound 35, 4-(7-(3,6-dihydro-2H-pyran-4-yl)-2-(3-(4-methoxybenzyl)-1H-pyrazol-1-yl)pyrido[3,2-d]pyrimidin-4-yl)morpholine]
